Laboratory results: patent US20250250286A1, “FUSED PYRIMIDINE DERIVATIVES AS KRAS ONCOPROTEIN INHIBITORS” (BETA PHARMA, INC., priority 2021, published 2025)
Counter-ions that a name gives are not always drawn.

Each molecule was assayed against T1, KRAS G12D (Homo sapiens, UniProt P01116, G12D) (assay: KRAS G12D/SOS1 Nucleotide Exchange Assay (SOS1-mediated Bodipy-GDP to GTP exchange)). Conditions: rate constant method (plateau = 0), Bodipy-GDP/KRAS G12D as substrate, 0.5% DMSO, 30 min pre-incubation at RT.
T1 construct: Recombinant human KRAS G12D (aa 2-169, expressed in E. coli); His-tag (TEV cleavable) (N); purchased Reaction Biology Corporation (RBC) SOS1: RBC cat #MSC-11-502; KRAS G12D: not given; host or cells: E. coli
Format: biochemical
Procedure: The compound pre-incubation time was 30 min at RT and the curve fits were performed when the activities at the highest concentration of compounds were less than 65%.
Reaction Buffer: 40 mM HEPES 7.4, 10 mM MgCl2, 1 mM DTT 0.002% Triton ×100, 0.5% DMSO.
KRAS is pre-loaded with a 5-fold excess of Bodipy-GDP. The excess Bodipy-GDP is separated from loaded protein using a spin desalting column.
• 1. Deliver 10 μL of 1.5× KRAS solution in freshly prepared reaction buffer to reaction wells. • 2. Deliver compounds in 100% DMSO into buffer using acoustic technology (Echo550; nanoliter range). • 3. Incubate compounds with KRAS for 30 minutes at room temperature. • 4. Prepare 3× (SOS1+GTP) solution in reaction buffer. • 5. Deliver 5 μL of SOS1+GTP solution into reactions wells (deliver GTP only to column 1 for no SOS1 control). • 6.
Data Analysis: The fluorescence data was normalized using the equation below and fitted to “one phase exponential decay” equation using GraphPad prism software. The plateau was fixed to zero (use for non-covalent inhibitors) and rate ×1000 was used to calculate the IC50 values.
[formula] • where Yraw is defined as fluorescence at time t, Ao is the average initial fluorescence with no SOS1, and M is the minimum fluorescence at the end of the reaction at the maximum SOS1.
The background subtracted signals (no SOS1 protein wells were used as background) were converted to % activity relative to DMSO controls. Data was analyzed using GraphPad Prism 4 with “sigmoidal dose-response (variable slope)”; 4 parameters with Hill Slope. The constraints were bottom (constant equal to 0) and top (must be less than 120).

T1 sequence (P01116 2-169 G12D): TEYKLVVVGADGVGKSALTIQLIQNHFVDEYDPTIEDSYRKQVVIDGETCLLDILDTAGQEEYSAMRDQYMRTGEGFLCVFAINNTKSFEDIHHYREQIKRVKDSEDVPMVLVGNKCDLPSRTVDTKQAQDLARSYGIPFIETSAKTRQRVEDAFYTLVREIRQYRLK

Compared with `Clc1cccc2cccc(-c3cnc4c(N5C[C@H]6CC[C@@H](C5)N6)nc(OCC56CCCN5CCC6)nc4c3)c12` [Example 1, 4-((1R,5S)-3,8-Diazabicyclo[3.2.1]octan-3-yl)-7-(8-chloronaphthalen-1-yl)-2-((tetrahydro-1H-pyrrolizin-7a(5H)-yl)methoxy)pyrido[3,2-d]pyrimidine hydrochloride (1:3)], `Clc1cccc2cccc(-c3ccc4c(N5C[C@H]6CC[C@@H](C5)N6)nc(OCC56CCCN5CCC6)nc4n3)c12` [Example 4, 4-((1R,5S)-3,8-diazabicyclo[3.2.1]octan-3-yl)-7-(8-chloronaphthalen-1-yl)-2-((tetrahydro-1H-pyrrolizin-7a(5H)-yl)methoxy)pyrido[2,3-d]pyrimidine] is 14-fold higher in IC50: 610 nM for the first, 8600 nM for the second. The first is the more potent here.

`C#Cc1c(F)ccc2cc(O)cc(-c3cnc4c(N5C[C@H]6CC[C@@H](C5)N6)nc(OC[C@@]56CCCN5C[C@H](F)C6)nc4c3)c12` [Example 5, 4-(4-((1R,5S)-3,8-Diazabicyclo[3.2.1]octan-3-yl)-2-(((2R,7aS)-2-fluorotetrahydro-1H-pyrrolizin-7a(5H)-yl)methoxy)pyrido[3,2-d]pyrimidin-7-yl)-5-ethynyl-6-fluoronaphthalen-2-ol] and `Oc1cc(-c2cnc3c(N4C[C@H]5CC[C@@H](C4)N5)nc(OCC45CCCN4CCC5)nc3c2)c2ccccc2c1` [Example 2, 4-(4-((1R,5S)-3,8-Diazabicyclo[3.2.1]octan-3-yl)-2-((tetrahydro-1H-pyrrolizin-7a(5H)-yl)methoxy)pyrido[3,2-d]pyrimidin-7-yl)naphthalen-2-ol] are within 1.5-fold of each other in IC50: 28 nM for the first, 35 ± 5.7 nM for the second.

`CN1CCC[C@H]1COc1nc(N2C[C@H]3CC[C@@H](C2)N3)c2ccc(-c3cccc4cccc(Cl)c34)nc2n1` [Example 3, 4-((1R,5S)-3,8-Diazabicyclo[3.2.1]octan-3-yl)-7-(8-chloronaphthalen-1-yl)-2-(((S)-1-methylpyrrolidin-2-yl)methoxy)pyrido[2,3-d]pyrimidine] was tested, and the IC50 was > 10000 nM.
